Test results reported in patent publication US20080312271A1, “AZABENZIMIDAZOLYL COMPOUNDS” (Pfizer Inc., priority 2006, published 2008).
Where two headings read alike, the source gives them in different places.

Biological target: T1, mGluR2 receptor (metabotropic glutamate receptor 2) (Homo sapiens, UniProt Q14416)
T1 construct: expressed in transfected cells
Experiment: mGluR2 Potentiator Screen, FLIPR, EC10-EC20 glutamate challenge
Type: cell-based
Procedure: Procedure for mGluR2 Potentiator Screen NLB methods EC10-EC20 Challenge Cell Culture and Plating:
Cells used for this screen are HEK cells stably transfected with the mGluR2 receptor (metabotropic glutamate receptor 2) and the Gα15 G protein. Clones were identified by functional activity (FLIPR). Cells are grown in growth media containing: DMEM High Glucose with Glutamine and Na Pyruvate (GIBCO), 10% (v/v) Heat inactivate FBS (GIBCO), G418 500 ug/ml (from 50 mg/ml stock) (GIBCO) and Blasticidin 3 ug/ml (from 5 mg/ml stock made in H2O) (Invitrogen).
2 days before the assay cell are trypsinized with 0.25% trysin/EDTA (GIBCO), spun down at 1000 rpm for 5 minutes, resuspended in growth media and plated on polystyrene 384 well black wall 1 clear bottom poly-D-lysine coated plates at a density of approximately 18,000 cells/well in a volume of 50 μL per well. One day before the assay the growth media is removed from the plates by flicking, and replaced with media containing DMEM High Glucose without Glutamine and Na Pyruvate (GIBCO) and 10% (v/v) dialyzed FBS (GIBCO). The reason for the removal of glutamine the day before the assay is to minimize the amount of glutamate that will be present during the assay, as endogenous glutarnate released from the cells can reduce the fluorescent response and interfere with the FLIPR screen.
FLIPR Methods and Data Analysis:
On the day of the assay, the FLIPR assay is performed using the following methods.
The pH is adjusted to 7.4 with 1 M NaOH. Prepare a 2 mM (approx.) stock solution of Fluo-4,am (Molecular Probes) dye in DMSO-22 μl DMSO per 50 ug vial (440 μL per 1 mg vial). Make a 1 mM (approx.) flou-4, PA working solution per vial by adding 22 μl of 20% pluronic acid (PA), (Molecular Probes) in DMSO to each 50 ug vial (440 μL per 1 mg vial). Prepare a 250 mM Probenecid (Sigma) stock solution by dissolving 0.71 g into 5 ml 1N NaOH and 5 ml assay buffer (for each liter of assay wash buffer)L Make 4 uM (approx.) dye incubation media by adding […] per 11 ml DMEM high glucose without glutamine (220 ml per 1 mg vial). Add 110 μL probenecid stock per 11 ml (2.5 mM final [concentration]). To the dye media add 3 units/ml of glutamic-pyruvic transaminase (GPT, Sigma) and 3 mM Na Pyruvate. The assay has worked with dye concentrations from 2 uM to 8 uM dye as well. To the assay buffer from drug preparation, add 1.83 mls DMSO and 400 μL 15.8% P104 (from New Leads biology) per liter for final concentrations of 0.18% DMSO and 0.006% P104. To the assay buffer for cell washing, add probenecid in the same manner and concentration that was used for the dye media.
Remove growth media from cell plates by flicking. Add 50 μl/well dye solution. Incubate 1 hour at 37° C. and 5% CO2. Remove dye solution and wash 3 times with assay buffer+probenecid (100 μl probenecid stock per 10 ml buffer), leaving 30 μL/well assay buffer. Wait at least 10-15 minutes. Compounds and agonist challenge additions are performed with the FLIPR. The 1st addition is for test compounds, which are added as 15 μL of 4×[concentration] of potentiator. The second 2nd addition is 15 μL of 4×[concentration] of agonist or challenge. This achieves 1× concentration of all compounds only after 2nd addition. The 1st and 2nd additions are performed separately using the FLIPR, which give 2 different data files. Compounds are pretreated at least 30 minutes before agonist addition,
Results are analyzed by dividing the peak fluorescent value of the FLIPR response by the […] to achieve a ratio response. The ratios are then analyzed by curve fitting programs. […] Maximum values for dose response curves (forced fitting) are derived from standards on the plate.
Compound Preparation and Glutamate Challenge:
Compounds are delivered as 10 mM DMSO stocks or as powders, Powders are solubilized in DMSO at 10 mM (as solubility allows). Compounds are sonicated in a heated water bath (35-40° C.) for at least 20 minutes.

[1] = mGluR2 potentiator screen, FLIPR, EC10-EC20 glutamate challenge

T1 sequence (Q14416 19-872, species assumed): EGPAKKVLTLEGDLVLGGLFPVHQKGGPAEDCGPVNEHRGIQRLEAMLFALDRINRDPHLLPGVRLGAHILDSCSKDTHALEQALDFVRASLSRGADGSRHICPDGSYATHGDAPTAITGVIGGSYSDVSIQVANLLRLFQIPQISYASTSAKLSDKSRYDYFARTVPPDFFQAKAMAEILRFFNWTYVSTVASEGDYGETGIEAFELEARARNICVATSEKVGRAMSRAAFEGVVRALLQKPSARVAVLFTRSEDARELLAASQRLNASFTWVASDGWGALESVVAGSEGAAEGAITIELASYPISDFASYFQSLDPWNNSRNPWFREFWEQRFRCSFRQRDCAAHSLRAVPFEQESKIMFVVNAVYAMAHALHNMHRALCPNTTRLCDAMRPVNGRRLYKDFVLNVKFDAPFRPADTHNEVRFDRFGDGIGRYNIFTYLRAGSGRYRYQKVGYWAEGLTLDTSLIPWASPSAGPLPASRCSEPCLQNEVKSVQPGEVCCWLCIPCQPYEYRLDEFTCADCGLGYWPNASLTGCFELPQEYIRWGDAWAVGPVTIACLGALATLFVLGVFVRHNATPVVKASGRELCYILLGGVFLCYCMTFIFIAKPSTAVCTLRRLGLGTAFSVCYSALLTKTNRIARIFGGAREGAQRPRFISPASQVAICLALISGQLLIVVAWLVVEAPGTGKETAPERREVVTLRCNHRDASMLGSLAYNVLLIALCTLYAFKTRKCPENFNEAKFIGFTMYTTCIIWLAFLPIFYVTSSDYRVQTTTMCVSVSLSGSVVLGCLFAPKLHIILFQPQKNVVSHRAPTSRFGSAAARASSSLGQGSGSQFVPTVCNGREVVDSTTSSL

| Structure (SMILES) | EC50 | EC50 [1] |
| --- | --- | --- |
| C[C@@H]1CN(Cc2nc3cnccc3n2C)CC[C@@H]1c1ccc(OC(F)(F)F)cc1Cl (relative stereo) [compound 188] | 194 nM |  |
| C[C@@H]1CN(Cc2nc3ncccc3n2C)CC[C@@H]1c1ccc2c(c1)CCCC2 (relative stereo) [compound 189] | 621 nM |  |
| C[C@@H]1CN(Cc2nc3cnccc3n2C)CC[C@@H]1c1ccc2c(c1)CCCC2 (relative stereo) [compound 190] | 573 nM |  |
| CC(C)Oc1cc(F)ccc1[C@H]1CCN(Cc2nc3ncccc3n2C)C[C@H]1C (relative stereo) [compound 191] | 610 nM |  |
| CC(C)Oc1cc(F)ccc1[C@H]1CCN(Cc2nc3cnccc3n2C)C[C@H]1C (relative stereo) [compound 192] | 1170 nM |  |
| CC(C)Oc1ccc([C@H]2CCN(Cc3nc4cnccc4n3C)C[C@H]2C)cc1Cl (relative stereo) [compound 193] | 590 nM |  |
| CCOc1ccc([C@H]2CCN(Cc3nc4cnccc4n3C)C[C@H]2C)cc1F (relative stereo) [compound 194] | > 5360 nM |  |
| CC(C)Oc1ccc([C@H]2CCN(Cc3nc4ncccc4n3C)C[C@H]2C)cc1Cl (relative stereo) [compound 195] | 506 nM |  |
| C[C@@H]1CN(Cc2nc3ncccc3n2C)CC[C@@H]1c1ccc(F)c(C(F)(F)F)c1 (relative stereo) [compound 197] | 128 nM |  |
| C[C@@H]1CN(Cc2nc3cnccc3n2C)CC[C@@H]1c1ccc(F)c(C(F)(F)F)c1 (relative stereo) [compound 198] | 176 nM |  |
| C[C@@H]1CN(Cc2nc3cnccc3n2C)CC[C@@H]1c1ccc(OC(F)F)cc1F (relative stereo) [compound 199] | 122 nM |  |
| C[C@@H]1CN(Cc2nc3ncccc3n2C)CC[C@@H]1c1ccc2c(c1)CCO2 (relative stereo) [compound 200] | 469 nM |  |
| C[C@@H]1CN(Cc2nc3cnccc3n2C)CC[C@@H]1c1ccc2c(c1)CCO2 (relative stereo) [compound 201] | > 1070 nM |  |
| C[C@@H]1CN(Cc2nc3cnccc3n2C)CC[C@@H]1c1ccc(OC(F)F)cc1Cl (relative stereo) [compound 202] | 125 nM |  |
| C[C@@H]1CN(Cc2nc3ncccc3n2C)CC[C@@H]1c1ccc(OC(F)F)cc1Cl (relative stereo) [compound 203] | 43.6 nM |  |
| C[C@@H]1CN(Cc2nc3ncccc3n2C)CC[C@@H]1c1ccc(F)cc1C(F)(F)F (relative stereo) [compound 204] | 28.3 nM |  |
| Cc1cc(F)ccc1[C@H]1CCN(Cc2nc3cnccc3n2C)C[C@H]1C (relative stereo) [compound 205] | 243 nM |  |
| Cc1cc(F)ccc1[C@H]1CCN(Cc2nc3ncccc3n2C)C[C@H]1C (relative stereo) [compound 206] | 88.6 nM |  |
| C[C@@H]1CN(Cc2nc3ncccc3n2C)CC[C@@H]1c1ccc(Cl)cc1C(F)(F)F (relative stereo) [compound 207] | 108 nM |  |
| C[C@@H]1CN(Cc2nc3cnccc3n2C)CC[C@@H]1c1ccc(Cl)cc1C(F)(F)F (relative stereo) [compound 208] | 110 nM |  |
| Cc1ccc([C@H]2CCN(Cc3nc4cnccc4n3C)C[C@H]2C)c(Cl)c1 (relative stereo) [compound 209] | 159 nM |  |
| Cc1ccc([C@H]2CCN(Cc3nc4ncccc4n3C)C[C@H]2C)c(Cl)c1 (relative stereo) [compound 210] | 62.6 nM |  |
| C[C@@H]1CN(Cc2nc3cnccc3n2C)CC[C@@H]1c1ccc(OC(F)(F)F)c(Cl)c1 (relative stereo) [compound 212] | 209 nM |  |
| C[C@@H]1CN(Cc2nc3ncccc3n2C)CC[C@@H]1c1ccc(OC(F)(F)F)c(Cl)c1 (relative stereo) [compound 213] | 253 nM |  |

| Structure (SMILES) | EC50 | EC50 [1] |
| --- | --- | --- |
| COc1cc(OC(F)(F)F)ccc1[C@H]1CCN(Cc2nc3cnccc3n2C)C[C@H]1C (relative stereo) [compound 214] | 124 nM |  |
| COc1cc(OC(F)(F)F)ccc1[C@H]1CCN(Cc2nc3ncccc3n2C)C[C@H]1C (relative stereo) [compound 215] | 59.4 nM |  |
| CC(C)Oc1ccc([C@H]2CCN(Cc3nc4cnccc4n3C)C[C@H]2C)c(C(F)(F)F)c1 (relative stereo) [compound 216] | 287 nM |  |
| CO[C@@H]1CN(Cc2nc3cnccc3n2C)CC[C@@H]1c1ccc(C(F)(F)F)cc1 (relative stereo) [compound 227] | 606 nM |  |
| C[C@@H]1CN(Cc2nc3ncccc3n2C)CC[C@@H]1c1ccc(C(F)(F)F)c(Cl)c1 (relative stereo) [compound 234] |  | 101 nM |
| C[C@@H]1CN(Cc2nc3cnccc3n2C)CC[C@@H]1c1ccc(C(F)(F)F)c(Cl)c1 (relative stereo) [compound 235] |  | 135 nM |
| Cc1cc(C(F)(F)F)ccc1[C@H]1CCN(Cc2nc3ncccc3n2C)C[C@H]1C (relative stereo) [compound 239] |  | 88 nM |
| C[C@@H]1CN(Cc2nc3ncccc3n2C)CC[C@@H]1c1ccc(F)c(F)c1F (relative stereo) [compound 249] |  | 113 nM |
| C[C@@H]1CN(Cc2nc3cnccc3n2C)CC[C@@H]1c1ccc(F)c(F)c1F (relative stereo) [compound 250] |  | > 221 nM |
| C[C@@H]1CN(Cc2nc3ncccc3n2C)CC[C@@H]1c1ccc(OC(F)F)cc1F (relative stereo) [compound 257] |  | 67.7 nM |
| C[C@@H]1CN(Cc2nc3cnccc3n2C)CC[C@@H]1c1ccc(F)cc1C(F)(F)F (relative stereo) [compound 258] |  | 125 nM |
| C[C@@H]1CN(Cc2nc3ncccc3n2C)CC[C@@H]1c1ccc(F)cc1OC(F)F (relative stereo) [compound 274] |  | 75.5 nM |
| C[C@@H]1CN(Cc2nc3cnccc3n2C)CC[C@@H]1c1ccc(F)cc1OC(F)F (relative stereo) [compound 275] |  | 96.5 nM |
| C[C@@H]1CN(Cc2nc3cnccc3n2C)CC[C@@H]1c1ccccc1F (single isomer, unassigned) [compound 73] | 242 nM |  |
| C[C@@H]1CN(Cc2nc3cnccc3n2C)CC[C@@H]1c1ccccc1F (single isomer, unassigned) [compound 117] | > 359 nM |  |
| C[C@@H]1CN(Cc2nc3ncccc3n2C)CC[C@@H]1c1ccc(C(F)(F)F)cc1 (single isomer, unassigned) [compound 118] | 33.4 nM |  |
| C[C@@H]1CN(Cc2nc3ncccc3n2C)CC[C@@H]1c1ccc(C(F)(F)F)cc1 (single isomer, unassigned) [compound 119] | > 1990 nM |  |
| C[C@@H]1CN(Cc2nc3ncccc3n2C)CC[C@@H]1c1ccc(Cl)cc1F (single isomer, unassigned) [compound 122] | 28.8 nM |  |
| COc1cc(C(F)(F)F)ccc1[C@H]1CCN(Cc2nc3ncccc3n2C)C[C@H]1C (single isomer, unassigned) [compound 130] | 787 nM |  |
| COc1cc(C(F)(F)F)ccc1[C@H]1CCN(Cc2nc3ncccc3n2C)C[C@H]1C (single isomer, unassigned) [compound 131] | 21.9 nM |  |
| C[C@@H]1CN(Cc2nc3ncccc3n2C)CC[C@@H]1c1ccc(C(F)(F)F)cc1F (single isomer, unassigned) [compound 138] | < 9.25 nM |  |
| C[C@@H]1CN(Cc2nc3ncccc3n2C)CC[C@@H]1c1ccc(C(F)(F)F)cc1F (single isomer, unassigned) [compound 139] | 993 nM |  |
| C[C@@H]1CN(Cc2nc3cnccc3n2C)CC[C@@H]1c1ccc(Cl)cc1F (single isomer, unassigned) [compound 140] | 2050 nM |  |
